Source: US8883963B2 (Cadila Healthcare Limited, priority 2007, dated 2014)
Starred links: 1 amine or outer side, 2 acyl side, 3 side chain; linkers in the order of their positions; H or OH if unused. Non-standard residues stand in square brackets, D forms with d. Residues, ends and D or L forms follow the SMILES beside them. ξ: configuration not given here. *: point of attachment. ξBip(2'-Et-4'-OMe) = CCc1cc(OC)ccc1-c1ccc(CC(N)C(=O)O)cc1; X12 = COc1ccc(CCCC(N[*:1])C(=O)[*:2])c(Cl)c1; ξαMePhe(2-F) = CC(N)(Cc1ccccc1F)C(=O)O; X2 = O=C(C(CCCc1ccccc1Cl)N[*:1])[*:2]; ξhhPhe = NC(CCCc1ccccc1)C(=O)O; Aib = CC(C)(N)C(=O)O; Moc = COC(=O)*

Columns and labels:
[1] = test system: C57BL/6J mice (mild hyperglycemic); assay: In vivo glucose reduction, acute single dose 120-min time-course, i.p. route; design: species or system mouse; unit not given here; conditions: male C57BL/6J mice
Protocol: All the animal experiments were carried out according to the internationally valid guidelines following approval by the ‘Zydus Research Center animal ethical committee’.
Two days prior to the study, the animals were randomised and divided into 5 groups (n=6), based upon their fed glucose levels. On the day of experiment, food was withdrawn from all the cages, water was given ad-libitum and were kept for overnight fasting. Vehicle (normal saline)/test/standard compounds were administered intraperitoneally (i.p.) or orally, on a body weight basis.
Blood samples were centrifuged and the separated serum was immediately subjected for the glucose estimation. Serum for insulin estimation was stored at −70° C. until used for the insulin estimation. The glucose estimation was carried out with DPEC-GOD/POD method (Ranbaxy Fine Chemicals Limited, Diagnostic division, India), using Spectramax-190, in 96-microwell plate reader (Molecular devices Corporation, Sunnyvale, Calif.). […] The AUC and BCAUC obtained from graphs were analyzed for one way ANOVA, followed by Dunnett's post test, using Graph Pad prism software. Furthermore, the insulin estimation was carried out using rat/mouse insulin ELISA kit (Linco research, Missouri USA).

[2] = Stability in human plasma; assay type: in vitro ADME; conditions: 2 μM peptidomimetic, pooled human plasma, 37° C.
Protocol: (§1) Reactions were terminated by the addition of TFA/H2O (15 mL, 10% (v/v)). […] The column was equilibrated with TFA/H20, at a flow rate of 1 mL/min.

[3] = target: DPP IV (Homo sapiens, UniProt P27487); assay: Stability against DPP IV enzyme; assay type: in vitro ADME; conditions: 37° C.
Chain of DPP IV (P27487 whole entry, species assumed): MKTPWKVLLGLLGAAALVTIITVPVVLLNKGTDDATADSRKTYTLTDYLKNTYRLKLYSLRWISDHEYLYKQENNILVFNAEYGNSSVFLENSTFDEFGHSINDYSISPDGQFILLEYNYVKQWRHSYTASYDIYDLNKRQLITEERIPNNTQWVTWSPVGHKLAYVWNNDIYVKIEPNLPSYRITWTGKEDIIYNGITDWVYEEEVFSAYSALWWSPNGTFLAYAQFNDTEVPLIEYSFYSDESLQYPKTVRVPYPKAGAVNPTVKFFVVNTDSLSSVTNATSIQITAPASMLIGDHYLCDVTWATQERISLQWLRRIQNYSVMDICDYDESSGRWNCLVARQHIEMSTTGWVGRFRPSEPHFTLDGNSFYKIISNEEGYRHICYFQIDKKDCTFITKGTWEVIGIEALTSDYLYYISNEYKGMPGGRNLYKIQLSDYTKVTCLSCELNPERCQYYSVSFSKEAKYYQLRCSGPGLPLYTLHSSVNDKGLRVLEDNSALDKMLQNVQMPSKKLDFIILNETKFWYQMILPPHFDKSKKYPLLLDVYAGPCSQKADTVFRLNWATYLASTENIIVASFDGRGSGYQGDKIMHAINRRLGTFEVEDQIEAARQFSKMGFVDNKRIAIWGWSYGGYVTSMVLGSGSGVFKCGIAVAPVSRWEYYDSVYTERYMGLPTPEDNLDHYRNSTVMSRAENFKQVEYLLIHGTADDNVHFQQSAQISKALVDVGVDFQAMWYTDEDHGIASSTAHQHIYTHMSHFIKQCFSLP
Protocol: as §1

[4] = Stability in liver microsomes; assay type: in vitro ADME; conditions: 2 μM peptidomimetic, human liver microsomes, 37° C.
Protocol: as §1

[5] = Stability in simulated gastric fluid; assay type: in vitro ADME; conditions: 2 μM peptidomimetic, simulated gastric fluid pH 1.5, 37° C.
Protocol: as §1

[6] = test system: RIN5F (Rat Insulinoma) cells; assay: In vitro glucose-dependent insulin secretion (RIN5F cell assay screening protocol); assay type: cell-based; conditions: 16.7 mM glucose load
[7] = target: T1, human glucagon receptor (Homo sapiens, UniProt P47871); assay: In vitro human glucagon antagonist activity (inhibition of cAMP production) in CHO/human glucagon R cells; assay type: cell-based; conditions: with saturated concentration of glucagon peptide
T1 construct: The full-length cDNA was cloned in pcDNA3.1 (Invitrogen); expressed in transfected cells
T1 sequence (P47871 26-477): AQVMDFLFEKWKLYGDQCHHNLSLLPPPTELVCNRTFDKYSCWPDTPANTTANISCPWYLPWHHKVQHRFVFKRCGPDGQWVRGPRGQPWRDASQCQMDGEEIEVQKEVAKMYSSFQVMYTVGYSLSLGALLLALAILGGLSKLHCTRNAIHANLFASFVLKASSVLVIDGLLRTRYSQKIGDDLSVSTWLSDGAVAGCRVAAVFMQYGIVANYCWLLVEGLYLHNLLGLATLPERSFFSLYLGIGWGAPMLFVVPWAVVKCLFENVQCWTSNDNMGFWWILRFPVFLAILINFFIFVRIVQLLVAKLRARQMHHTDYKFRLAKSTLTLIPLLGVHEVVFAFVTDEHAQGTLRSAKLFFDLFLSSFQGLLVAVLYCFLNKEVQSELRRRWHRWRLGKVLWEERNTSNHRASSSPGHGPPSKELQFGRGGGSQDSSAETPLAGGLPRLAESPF

[8] = target: T2, Human GLP-1 receptor (Homo sapiens, UniProt P43220); assay: In vitro Human GLP-1 R agonist activity (cyclic AMP determination) in CHO/human GLP1R cells; assay type: cell-based
T2 construct: The full-length cDNA was cloned in pcDNA3.1(+); expressed in transfected cells
T2 sequence (P43220 24-463): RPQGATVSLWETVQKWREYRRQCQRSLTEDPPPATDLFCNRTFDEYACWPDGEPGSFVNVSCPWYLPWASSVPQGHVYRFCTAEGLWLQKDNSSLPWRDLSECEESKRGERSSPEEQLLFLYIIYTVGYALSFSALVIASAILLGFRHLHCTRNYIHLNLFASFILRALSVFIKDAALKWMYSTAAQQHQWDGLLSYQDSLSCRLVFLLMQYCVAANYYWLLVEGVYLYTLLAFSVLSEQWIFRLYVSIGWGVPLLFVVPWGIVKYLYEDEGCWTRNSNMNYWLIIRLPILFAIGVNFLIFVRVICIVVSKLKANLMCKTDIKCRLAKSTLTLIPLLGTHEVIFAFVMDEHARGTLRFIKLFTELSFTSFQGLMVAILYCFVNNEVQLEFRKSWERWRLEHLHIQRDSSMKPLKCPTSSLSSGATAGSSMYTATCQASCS

[9] = Stability in simulated intestinal fluid; assay type: in vitro ADME; conditions: 2 μM peptidomimetic, simulated intestinal fluid pH 7.5, 37° C.
Protocol: as §1

CCc1cc(OC)ccc1-c1ccc(CC(NC(=O)[C@H](CC(=O)O)NC(=O)[C@H](CO)NC(=O)[C@@H](NC(=O)C(C)(Cc2ccccc2F)NC(=O)[C@@H](NC(=O)CNC(=O)[C@H](CCC(N)=O)NC(=O)C(C)(C)NC(=O)[C@H](Cc2c[nH]cn2)NC(=O)OC)[C@@H](C)O)[C@@H](C)O)C(=O)NC(CCCc2ccccc2)C(N)=O)cc1 (some centres unmarked) [Seq. ID. 94] (Moc-H[Aib]QGT[ξαMePhe(2-F)]TSD[ξBip(2'-Et-4'-OMe)][ξhhPhe]-NH2)
blood glucose levels ([1]; 10 nM/kg i.p., 0 min): 182 ± 4.1 | blood glucose levels ([1]; 10 nM/kg i.p., 30 min): 112 ± 3.1 | blood glucose levels ([1]; 10 nM/kg i.p., 60 min): 113 ± 2.6 | blood glucose levels ([1]; 10 nM/kg i.p., 120 min): 111 ± 1.8

CCc1cc(OC)ccc1-c1ccc(CC(CNC(CCCc2ccccc2)C(N)=O)NC[C@H](CC(=O)O)NC(=O)[C@H](CO)NC(=O)[C@@H](NC(=O)C(C)(Cc2ccccc2F)NC(=O)[C@@H](NC(=O)CNC(=O)[C@H](CCC(N)=O)NC(=O)C(C)(C)NC(=O)[C@H](Cc2c[nH]cn2)NC(=O)OC)[C@H](C)O)[C@H](C)O)cc1 (single isomer, unassigned) [Seq. ID. 198]
blood glucose levels ([1]; 50 nM/kg i.p., 0 min): 182 ± 4.1 | blood glucose levels ([1]; 50 nM/kg i.p., 30 min): 112 ± 3.1 | blood glucose levels ([1]; 50 nM/kg i.p., 60 min): 113 ± 2.6 | blood glucose levels ([1]; 50 nM/kg i.p., 120 min): 111 ± 1.8

CCc1cc(OC)ccc1-c1ccc(CC(CNC(CCCc2ccccc2)C(N)=O)NC[C@H](CC(=O)O)NC(=O)[C@H](CO)NC(=O)[C@@H](NC(=O)C(C)(Cc2ccccc2F)NC(=O)[C@@H](NC(=O)CNC(=O)[C@H](CCC(N)=O)NC(=O)C(C)(C)NC(=O)[C@H](Cc2c[nH]cn2)NC(C)=O)[C@H](C)O)[C@H](C)O)cc1 (single isomer, unassigned) [Seq. ID. 197]
blood glucose levels ([1]; 50 nM/kg i.p., 0 min): 180 ± 4.2 | blood glucose levels ([1]; 50 nM/kg i.p., 30 min): 113 ± 3.2 | blood glucose levels ([1]; 50 nM/kg i.p., 60 min): 112 ± 2.4 | blood glucose levels ([1]; 50 nM/kg i.p., 120 min): 110 ± 1.9

CCc1cc(OC)ccc1-c1ccc(CC(NC(=O)[C@H](CC(=O)O)NC(=O)[C@H](CO)NC(=O)[C@@H](NC(=O)C(C)(Cc2ccccc2F)NC(=O)[C@@H](NC(=O)CNC(=O)[C@H](CCC(N)=O)NC(=O)C(C)(C)NC(=O)[C@@H](N)Cc2c[nH]cn2)[C@@H](C)O)[C@@H](C)O)C(=O)NC(CCCc2ccc(OC)cc2Cl)C(N)=O)cc1 (some centres unmarked) [Seq. ID. 92] (H-H[Aib]QGT[ξαMePhe(2-F)]TSD[ξBip(2'-Et-4'-OMe)][X12]-NH2)
blood glucose levels ([1]; 10 nM/kg i.p., 0 min): 180 ± 4.2 | blood glucose levels ([1]; 10 nM/kg i.p., 30 min): 113 ± 3.2 | blood glucose levels ([1]; 10 nM/kg i.p., 60 min): 112 ± 2.4 | blood glucose levels ([1]; 10 nM/kg i.p., 120 min): 110 ± 1.9

CCc1cc(OC)ccc1-c1ccc(CC(C(=O)N(C)C(CCCc2ccccc2F)C(N)=O)N(C)C(=O)[C@H](CC(=O)O)N(C)C(=O)[C@H](CO)NC(=O)[C@@H](NC(=O)C(C)(Cc2ccccc2F)NC(=O)[C@@H](NC(=O)CNC(=O)C(CCC#N)NC(=O)C(C)(C)NC(=O)[C@@H](N)Cc2c[nH]cn2)[C@H](C)O)[C@H](C)O)cc1 (single isomer, unassigned) [Seq. ID. 156]
blood glucose levels ([1]; 30 nM/kg i.p., 0 min): 180 ± 3.2 | blood glucose levels ([1]; 30 nM/kg i.p., 30 min): 119 ± 3.2 | blood glucose levels ([1]; 30 nM/kg i.p., 60 min): 117 ± 3.1 | blood glucose levels ([1]; 30 nM/kg i.p., 120 min): 118 ± 1.8

CCc1cc(OC)ccc1-c1ccc(CC(CNC(CCCc2ccccc2)C(N)=O)NC[C@H](CC(=O)O)NC(=O)[C@H](CO)NC(=O)[C@@H](NC(=O)C(C)(Cc2ccccc2F)NC(=O)[C@@H](NC(=O)CNC(=O)[C@H](CCC(N)=O)NC(=O)C(C)(C)NC(=O)[C@H](Cc2c[nH]cn2)NC(=O)OC)[C@@H](C)O)[C@@H](C)O)cc1 (single isomer, unassigned) [Seq. ID. 194]
blood glucose levels ([1]; 10 nM/kg i.p., 0 min): 183 ± 2.2 | blood glucose levels ([1]; 10 nM/kg i.p., 30 min): 113 ± 2.8 | blood glucose levels ([1]; 10 nM/kg i.p., 60 min): 113 ± 2.9 | blood glucose levels ([1]; 10 nM/kg i.p., 120 min): 114 ± 2.0

CCc1cc(OC)ccc1-c1ccc(CC(CNC(CCCc2ccccc2F)C(N)=O)NC(=O)[C@H](CC(=O)O)NC(=O)[C@H](CO)NC(=O)[C@@H](NC(=O)C(C)(Cc2ccccc2F)NC(=O)[C@@H](NC(=O)CNC(=O)C(CCC#N)NC(=O)C(C)(C)NC(=O)[C@@H](N)Cc2c[nH]cn2)[C@H](C)O)[C@H](C)O)cc1 (single isomer, unassigned) [Seq. ID. 192]
blood glucose levels ([1]; 10 nM/kg i.p., 0 min): 180 ± 2.5 | blood glucose levels ([1]; 10 nM/kg i.p., 30 min): 110 ± 2.6 | blood glucose levels ([1]; 10 nM/kg i.p., 60 min): 111 ± 3.2 | blood glucose levels ([1]; 10 nM/kg i.p., 120 min): 112 ± 2.3

CCc1cc(OC)ccc1-c1ccc(CC(NC(=O)[C@H](CC(=O)O)NC(=O)[C@H](CO)NC(=O)[C@@H](NC(=O)C(C)(Cc2ccccc2F)NC(=O)[C@@H](NC(=O)CNC(=O)[C@H](CCC(N)=O)NC(=O)C(C)(C)NC(=O)[C@@H](N)Cc2c[nH]cn2)[C@@H](C)O)[C@@H](C)O)C(=O)NC(CCCc2ccccc2Cl)C(N)=O)cc1 (some centres unmarked) [Seq. ID. 90] (H-H[Aib]QGT[ξαMePhe(2-F)]TSD[ξBip(2'-Et-4'-OMe)][X2]-NH2)
blood glucose levels ([1]; 10 nM/kg i.p., 0 min): 181 ± 2.5 | blood glucose levels ([1]; 10 nM/kg i.p., 30 min): 111 ± 3.4 | blood glucose levels ([1]; 10 nM/kg i.p., 60 min): 113 ± 3.1 | blood glucose levels ([1]; 10 nM/kg i.p., 120 min): 110 ± 1.8

CCc1cc(OC)ccc1-c1ccc(CC(CNC(CCCc2ccccc2F)C(N)=O)NC[C@H](CC(=O)O)NC(=O)[C@H](CO)NC(=O)[C@@H](NC(=O)C(C)(Cc2ccccc2F)NC(=O)[C@@H](NC(=O)CNC(=O)[C@H](CCC(N)=O)NC(=O)C(C)(C)NC(=O)[C@H](Cc2c[nH]cn2)NC(C)=O)[C@@H](C)O)[C@@H](C)O)cc1 (single isomer, unassigned) [Seq. ID. 195]
blood glucose levels ([1]; 10 nM/kg i.p., 0 min): 182 ± 2.3 | blood glucose levels ([1]; 10 nM/kg i.p., 30 min): 110 ± 2.3 | blood glucose levels ([1]; 10 nM/kg i.p., 60 min): 112 ± 3.0 | blood glucose levels ([1]; 10 nM/kg i.p., 120 min): 112 ± 1.9

CCc1cc(OC)ccc1-c1ccc(CC(NC(=O)[C@H](CC(=O)O)NC(=O)[C@H](CO)NC(=O)[C@@H](NC(=O)C(C)(Cc2ccccc2F)NC(=O)[C@@H](NC(=O)CNC(=O)C(CCC#N)NC(=O)C(C)(C)NC(=O)[C@@H](N)Cc2c[nH]cn2)[C@H](C)O)[C@H](C)O)C(=O)N(C)C(CCCc2ccccc2)C(N)=O)cc1 (single isomer, unassigned) [compound 130]
% degradation of peptidomimetics in 24 h when incubated with human plasma ([2]; 24 h): 78% | half-life at 2 μM ([2]; pH 7.8, read-out: half-life (t1/2) when incubated with human plasma): 8 h | % degradation of peptidomimetics in 24 h when incubated with DPP-IV enzyme ([3]; 2 μM peptidomimetic, 24 h): 76% | half-life at 2 μM ([3]; DPP IV enzyme, pH 7.8, 2 μM peptidomimetic, read-out: half-life (t1/2) when incubated with DPP-IV enzyme): 9 h | % degradation of peptidomimetics in 24 h when incubated with liver microsomes ([4]; 24 h): 79% | half-life at 2 μM ([4]; pH 7.8, read-out: half-life (t1/2) when incubated with liver microsomes): 1 h | half-life (t1/2) when incubated with simulated gastric fluid [5]: (8) h | % degradation of peptidomimetics in 24 h when incubated with simulated gastric fluid ([5]; 24 h): 12% | Insulin secretion ([6]; 0.1 nM test compd.): 17.1 ± 0.11 pg/µg/h | Insulin secretion ([6]; 1 nM test compd.): 23.1 ± 0.16 pg/µg/h | Insulin secretion ([6]; 10 nM test compd.): 37.0 ± 0.29 pg/µg/h | Human Glucagon receptor antagonistic activity shown as inhibition of cAMP production of Glucagon peptide ([7]; 1 nM test compound): 5 ± 0.04 pmol/ml/μg prt | Human Glucagon receptor antagonistic activity shown as inhibition of cAMP production of Glucagon peptide ([7]; 10 nM test compound): 3 ± 0.02 pmol/ml/μg prt | Human Glucagon receptor antagonistic activity shown as inhibition of cAMP production of Glucagon peptide ([7]; 100 nM test compound): 1 ± 0.11 pmol/ml/μg prt | Human Glucagon receptor antagonistic activity shown as inhibition of cAMP production of Glucagon peptide ([7]; 1 μM test compound): 0 pmol/ml/μg prt | Human Glucagon receptor antagonistic activity shown as inhibition of cAMP production of Glucagon peptide ([7]; 10 μM test compound): 0 pmol/ml/μg prt | Human GLP-1 R activity (cAMP release), % activity with respect to control ([8]; 1 nM test compound): 39 ± 0.10% | Human GLP-1 R activity (cAMP release), % activity with respect to control ([8]; 10 nM test compound): 81 ± 0.08% | Human GLP-1 R activity (cAMP release), % activity with respect to control ([8]; 100 nM test compound): 89 ± 0.09% | Human GLP-1 R activity (cAMP release), % activity with respect to control ([8]; 1 μM test compound): 96 ± 0.11% | Human GLP-1 R activity (cAMP release), % activity with respect to control ([8]; 10 μM test compound): 99 ± 0.16% | half-life (t1/2) when incubated with simulated intestinal fluid [9]: (6) h | % degradation of peptidomimetics in 24 h when incubated with simulated intestinal fluid ([9]; 24 h): 55%
